# Source: patent US20220002309A1, “SSAO INHIBITORS AND USES THEREOF” (Metacrine, Inc., priority 2018, published 2022)
# Target: T1, Recombinant Human SSAO/VAP-1/AOC3 (Homo sapiens, UniProt Q16853)
# T1 construct: purchased R&D systems 3957-AO
# T1 sequence (Q16853 1-763): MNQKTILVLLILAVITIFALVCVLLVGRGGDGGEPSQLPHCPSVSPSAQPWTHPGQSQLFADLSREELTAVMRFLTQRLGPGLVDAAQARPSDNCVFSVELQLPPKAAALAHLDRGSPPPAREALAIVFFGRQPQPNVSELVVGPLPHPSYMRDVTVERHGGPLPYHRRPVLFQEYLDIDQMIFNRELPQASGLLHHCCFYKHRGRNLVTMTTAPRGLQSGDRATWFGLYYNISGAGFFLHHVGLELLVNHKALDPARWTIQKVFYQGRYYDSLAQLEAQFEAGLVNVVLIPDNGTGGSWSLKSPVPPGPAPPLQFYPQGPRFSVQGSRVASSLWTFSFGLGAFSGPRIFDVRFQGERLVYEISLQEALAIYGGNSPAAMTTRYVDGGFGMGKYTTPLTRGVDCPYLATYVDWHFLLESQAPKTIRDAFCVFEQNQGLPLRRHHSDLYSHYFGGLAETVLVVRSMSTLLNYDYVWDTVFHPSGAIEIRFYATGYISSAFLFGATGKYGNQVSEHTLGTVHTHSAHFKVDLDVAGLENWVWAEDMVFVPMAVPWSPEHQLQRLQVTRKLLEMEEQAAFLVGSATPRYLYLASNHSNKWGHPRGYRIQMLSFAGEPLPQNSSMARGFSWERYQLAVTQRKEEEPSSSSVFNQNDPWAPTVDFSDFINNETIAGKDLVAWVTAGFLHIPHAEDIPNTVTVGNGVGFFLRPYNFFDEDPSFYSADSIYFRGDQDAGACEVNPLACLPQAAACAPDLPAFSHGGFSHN
# Assay: Human Semicarbazide-Sensitive Amine Oxidase (SSAO) Assay
# Assay type: biochemical
# Settings: recombinant enzyme; 30 minutes preincubation at 37° C.; benzylamine substrate; Amplex Ultra Red/HRP fluorescence
# Procedure: Example B-1: Human Semicarbazide-Sensitive Amine Oxidase (SSAO) Assay
# Compounds were dissolved in DMSO to provide a Concentration Response Curve (CRC; at 500 times the final concentration) over a range of 6-10 dilutions.
# Recombinant Human SSAO/VAP-1/AOC3 (R&D systems; Catalog #3957-AO) was used to screen compound potency in vitro, according to previously described methods (J Pharmacol Exp Ther. 2013 November; 347(2):365-74). SSAO enzyme was suspended in 50 mM HEPES buffer to a working concentration of 2.5 μg/ml and 40 μL of this enzyme mixture was then added to each well of a F16 Black Maxisorp 96 well Plate (Nunc, Catalog #475515). Ten microliters of each test compound (at 5 times the final concentration) were added to each well, resulting in a final well volume of 50 μL of the enzyme and inhibitor mixture. The compounds were preincubated with the enzyme for 30 minutes at 37° C., prior to the addition of a 40 μL volume of Amplex Ultra Red (125 uM AUR; Molecular Probes, Catalog #A36006)/Horseradish peroxidase (2.5 U/ml HRP; Sigma-Aldrich Catalog #P8375) oxidase detection reagent containing cytochrome C (7.5 μM; Sigma-Aldrich Catalog #C7752). Cytochrome C was included in the AUR/HRP detection mixture to reduce the background fluorescence that can occur via the spontaneous redox reaction between AUR and HRP. The SSAO enzyme reaction was then initiated by adding 10 μL of the SSAO substrate, benzylamine (Sigma-Aldrich Catalog #B5136), and SSAO activity was measured in kinetic mode over a 30-120 minute sampling period (excit. 544 nm; emit 590 nm; cut off 570 nm; medium gain) to obtain IC50 values for enzyme activity in each treatment well.
row,SMILES,IC50 [nM]
1,"NC/C(=C\F)COc1ccc(C23CCC(C(=O)NC4(C(F)(F)F)CCOCC4)(CC2)CC3)cc1 [Compound 2.152, (E)-4-(4-((2-(aminomethyl)-3-fluoroallyl)oxy)phenyl)-N-(4-(trifluoromethyl)tetrahydro-2H-pyran-4-yl)bicyclo[2.2.2]octane-1-carboxamide]",≤ 10
2,"COC1(CNC(=O)C23CCC(c4ccc(OC/C(=C/F)CN)cc4)(CC2)CC3)CCCCC1 [Compound 2.102, (E)-4-(4-((2-(aminomethyl)-3-fluoroallyl)oxy)phenyl)-N-((1-methoxycyclohexyl)methyl) bicyclo[2.2.2]octane-1-carboxamide]",≤ 10
3,"CC(C)(C)O[C@H]1C[C@@H](NC(=O)C23CCC(c4ccc(OC/C(=C/F)CN)cc4)(CC2)CC3)C1 [Compound 2.149, 4-(4-(((E)-2-(aminomethyl)-3-fluoroallyl)oxy)phenyl)-N-((1s,3s)-3-(tert-butoxy)cyclobutyl)bicyclo[2.2.2] octane-1-carboxamide]",≤ 10
4,"CO[C@H]1CC[C@H](NC(=O)C23CC(c4ccc(OC/C(=C/F)CN)cc4)(C2)C3)CC1 [Compound 3.04, 3-(4-(((E)-2-(aminomethyl)-3-fluoroallyl)oxy)phenyl)-N-((1r,4r)-4-methoxycyclohexyl)bicyclo[1.1.1] pentane-1-carboxamide]",≤ 10

# Continued, values first:
row,IC50 [nM],SMILES
1,≤ 10,"CO[C@H]1CC[C@H](NC(=O)C23CCC(c4ccc(OC/C(=C/F)CN)cc4)(CC2)CC3)CC1 [Compound 2.104, 4-(4-(((E)-2-(aminomethyl)-3-fluoroallyl)oxy)phenyl)-N-((1r,4r)-4-methoxycyclohexyl)bicyclo[2.2.2] octane-1-carboxamide]"
2,≤ 10,"COCCO[C@H]1CC[C@H](NC(=O)C23CCC(c4ccc(OC/C(=C/F)CN)cc4)(CC2)CC3)CC1 [Compound 2.142, 4-(4-(((E)-2-(aminomethyl)-3-fluoroallyl)oxy)phenyl)-N-((1r,4r)-4-(2-methoxyethoxy)cyclohexyl)bicyclo [2.2.2]octane-1-carboxamide]"
